Experimental data reported in US4684664A, “Derivatives of β-(4-isocyano-1,2,3,4-diepoxycyclopentyl) acrylic acid” (Kureha Kagaku Kogyo Kabushiki Kaisha, priority 1984, dated 1987).

Assays:
Type in all cases: cell-based
[1] = system: Staphylococcus aureus FDA 209PJc-1; test: Antibacterial activity, agar-dilution MIC, organism No. 1; conditions: Staphylococcus aureus, FDA209PJC1; Organism No. 1, bouillon-agar; read-out: Minimum Inhibitory Concentration
From the text: (§1) Agar-dilution method was used for determination of the antibacterial activity and antifungal activity while using bouillon-agar culture medium, and the minimum inhibitory concentration of the specimen was expressed by μg/ml of the culture medium.

[2] = system: Staphylococcus aureus Terajima; test: Antibacterial activity, agar-dilution MIC, organism No. 2; conditions: Staphylococcus aureus; Organism No. 2, bouillon-agar; read-out: Minimum Inhibitory Concentration
From the text: as §1

[3] = system: Staphylococcus aureus MS 353; test: Antibacterial activity, agar-dilution MIC, organism No. 3; conditions: Staphylococcus aureus, MS353; Organism No. 3, bouillon-agar; read-out: Minimum Inhibitory Concentration
From the text: as §1

[4] = system: Streptococcus pyogenes Cook; test: Antibacterial activity, agar-dilution MIC, organism No. 4; conditions: Streptococcus pyogenes; Organism No. 4, bouillon-agar; read-out: Minimum Inhibitory Concentration
From the text: as §1

[5] = system: Escherichia coli NIHJ-JC-2; test: Antibacterial activity, agar-dilution MIC, organism No. 5; conditions: Escherichia coli, NIHJJC2; Organism No. 5, bouillon-agar; read-out: Minimum Inhibitory Concentration
From the text: as §1

[6] = system: Escherichia coli K12 C600 IAM 1264; test: Antibacterial activity, agar-dilution MIC, organism No. 6; conditions: Escherichia coli, IAM1264; Organism No. 6, bouillon-agar; read-out: Minimum Inhibitory Concentration
From the text: as §1

[7] = system: Klebsiella pneumoniae PCI-602; test: Antibacterial activity, agar-dilution MIC, organism No. 7; conditions: Klebsiella pneumoniae, PCI602; Organism No. 7, bouillon-agar; read-out: Minimum Inhibitory Concentration
From the text: as §1

[8] = system: Salmonella typhimurium IID 971; test: Antibacterial activity, agar-dilution MIC, organism No. 8; conditions: Salmonella enterica; Organism No. 8, bouillon-agar; read-out: Minimum Inhibitory Concentration
From the text: as §1

Salmonella typhi 901 = test: Antibacterial activity, agar-dilution MIC, organism No. 9; conditions: Salmonella enterica, TYPHI, read-out: Minimum Inhibitory Concentration
From the text: as §1

[9] = system: Salmonella paratyphi-A 1015; test: Antibacterial activity, agar-dilution MIC, organism No. 10; conditions: Salmonella enterica, PARATYPHI, read-out: Minimum Inhibitory Concentration
From the text: as §1

[10] = system: Salmonella shottmuelleri 8006; test: Antibacterial activity, agar-dilution MIC, organism No. 11; conditions: Salmonella, 8006; Organism No. 11, bouillon-agar; read-out: Minimum Inhibitory Concentration
From the text: as §1

[11] = system: Salmonella enteritidis G 14; test: Antibacterial activity, agar-dilution MIC, organism No. 12; conditions: Salmonella enterica, ENTERITIDIS; Organism No. 12, bouillon-agar; read-out: Minimum Inhibitory Concentration
From the text: as §1

[12] = system: Bacillus subtilis ATCC 6633; test: Antibacterial activity, agar-dilution MIC, organism No. 14; conditions: Bacillus subtilis, ATCC6633; Organism No. 14, bouillon-agar; read-out: Minimum Inhibitory Concentration
From the text: as §1

[13] = system: Pseudomonas aeruginosa IFO 3445; test: Antibacterial activity, agar-dilution MIC, organism No. 15; conditions: Pseudomonas aeruginosa, IFO3445; Organism No. 15, bouillon-agar; read-out: Minimum Inhibitory Concentration
From the text: as §1

[14] = system: Pseudomonas aeruginosa NCTC 10490; test: Antibacterial activity, agar-dilution MIC, organism No. 16; conditions: Pseudomonas aeruginosa, NCTC10490; Organism No. 16, bouillon-agar; read-out: Minimum Inhibitory Concentration
From the text: as §1

[15] = system: Pseudomonas aeruginosa PAO 1; test: Antibacterial activity, agar-dilution MIC, organism No. 17; conditions: Pseudomonas aeruginosa, PAO1; Organism No. 17, bouillon-agar; read-out: Minimum Inhibitory Concentration
From the text: as §1

[16] = system: Proteus morganii IFO 3848; test: Antibacterial activity, agar-dilution MIC, organism No. 18; conditions: Morganella morganii, IFO3848; Organism No. 18, bouillon-agar; read-out: Minimum Inhibitory Concentration
From the text: as §1

[17] = system: Proteus mirabilis IFO 3849; test: Antibacterial activity, agar-dilution MIC, organism No. 19; conditions: Proteus mirabilis, IFO3849; Organism No. 19, bouillon-agar; read-out: Minimum Inhibitory Concentration
From the text: as §1

Proteus vulgaris OX-19 = test: Antibacterial activity, agar-dilution MIC, organism No. 20; conditions: Proteus vulgaris, OX19; Organism No. 20, bouillon-agar; read-out: Minimum Inhibitory Concentration
From the text: as §1

Proteus vulgaris HX-19 = test: Antibacterial activity, agar-dilution MIC, organism No. 21; conditions: Proteus vulgaris, HX19; Organism No. 21, bouillon-agar; read-out: Minimum Inhibitory Concentration
From the text: as §1

[18] = system: Proteus rettgeri IFO 3850; test: Antibacterial activity, agar-dilution MIC, organism No. 22; conditions: Providencia rettgeri, IFO3850; Organism No. 22, bouillon-agar; read-out: Minimum Inhibitory Concentration
From the text: as §1

[19] = system: Enterobacter aerogenes ATCC 13048; test: Antibacterial activity, agar-dilution MIC, organism No. 23; conditions: Klebsiella aerogenes, ATCC13048; Organism No. 23, bouillon-agar; read-out: Minimum Inhibitory Concentration
From the text: as §1

Enterobacter cloacae 963 = test: Antibacterial activity, agar-dilution MIC, organism No. 24; conditions: Enterobacter cloacae, 963; Organism No. 24, bouillon-agar; read-out: Minimum Inhibitory Concentration
From the text: as §1

[20] = system: Micrococcus luteus ATCC 9341; test: Antibacterial activity, agar-dilution MIC, organism No. 25; conditions: Micrococcus luteus, ATCC9341; Organism No. 25, bouillon-agar; read-out: Minimum Inhibitory Concentration
From the text: as §1

[21] = system: Streptococcus pyogenes IFO 3340; test: Antibacterial activity, agar-dilution MIC, organism No. 26; conditions: Streptococcus pyogenes, IFO3340; Organism No. 26, bouillon-agar; read-out: Minimum Inhibitory Concentration
From the text: as §1

[22] = system: Streptococcus faecium IFO 3826; test: Antibacterial activity, agar-dilution MIC, organism No. 27; conditions: Enterococcus faecium, IFO3826; Organism No. 27, bouillon-agar; read-out: Minimum Inhibitory Concentration
From the text: as §1

[23] = system: Mycoplasma pneumoniae IID817; test: Antimycoplasmal activity, MIC by phenol red colour change, organism No. 28; conditions: Mycoplasma, IID817; Organism No. 28, PPLO broth + 1% glucose, 37° C.; read-out: Minimum Inhibitory Concentration (MIC)
Procedure: Mycoplasma pneumoniae IID817 was used as the test microorganism in a culture medium prepared by adding 1% of glucose to "PPLO broth (manufactured by Difco Co.) liquid culture medium" at 37° C. with phenol red as an indicator, thereby culturing the test microorganism.

[24] = system: Candida albicans IAM 4905; test: Antifungal activity, agar-dilution MIC, organism No. 29; conditions: Candida albicans, IAM4905; Organism No. 29, bouillon-agar; read-out: Minimum Inhibitory Concentration
From the text: as §1

[25] = system: Aspergillus niger IFO 6342; test: Antifungal activity, agar-dilution MIC, organism No. 30; conditions: Aspergillus niger, IFO6342; Organism No. 30, bouillon-agar; read-out: Minimum Inhibitory Concentration
From the text: as §1

Measured: MIC

[C-]#[N+]C12CC3(/C=C/C(=O)NCc4ccccc4)OC3C1O2 (stereo not shown) [Compound No. 24]
< 0.2 µg/mL: [23]
< 0.05 µg/mL: Proteus vulgaris HX-19 | [20]
3.13 µg/mL: Salmonella typhi 901 | [18]
6.25 µg/mL: [4] | [6] | [8] | [21]
> 100 µg/mL: [13] | [14] | [15] | [19] | Enterobacter cloacae 963
0.2 µg/mL: [24]
0.78 µg/mL: [1] | [3] | [10] | Proteus vulgaris OX-19
12.5 µg/mL: [5] | [12] | [17]
1.56 µg/mL: all other assays above

[C-]#[N+]C12CC3(/C=C/C(=O)N[C@@H](C(=O)OCc4ccccc4)C(C)C)OC3C1O2 (stereo partly shown) [compound 30]
1.56 µg/mL: [20]
> 100 µg/mL: [23] | [24] | [25]
> 200 µg/mL: all other assays above
